Assay results: patent US20240269238A1, “Therapeutic Regimens and Methods for Reducing Body Weight in a Subject with Fatty Liver Disease using a GLP-1R and GCGR Agonist” (Spitfire Pharma LLC, priority 2022, published 2024)
“Also recorded” adds a separate entry of the source.

Columns and labels:
[1] = molecular target: glucagon receptor (GCGR) (Homo sapiens, UniProt P47871); test: cellular assay, agonist activity at GCGR; format: cell-based
Excerpt: This disclosure relates to a dual agonist peptide(s) as well as pharmaceutical dosage formulations comprising, and methods for using, the same. The dual agonist peptides have affinity for, and in preferred embodiments about equal affinity for, glucagon-like peptide 1 receptor (GLP-1R) and glucagon receptor (GCGR), as may be determined using a cellular assay. In some embodiments, this disclosure provides pharmaceutical dosage formulations configured to induce weight loss in a human being with fatty liver disease. In some embodiments, the human being may, or may not, suffer from type 2 diabetes. In some embodiments, the disclosure provides pharmaceutical dosage formulations configured to reduce pathogenic plasma lipid mediators. As used herein, “pathogenic” serum lipid mediators, included but are not limited to the following reactive lipid species: malondialdehyde (MDA), isolevuglandins (IsoLG), methyglyoxal (MGO), 4-oxononenal (ONE), and 4-hydroxynonenal (HNE). Oxidized phospholipids include 1-palmitoyl-2-oxovaleroyl-sn-glycero-3-phosphorylcholine (POVPC), 1-O-alkyl-2-azelaoyl-sn-glycero-3-phophorylcholine (azPAF), 1-(Palmitoyl)-2-(5-keto-6-octene-dioyl) phosphatidylcholine (KOdiA-PC), 1-palmitoyl-2-F2-isoprostane-sn-glycero-3-phosphocholine (F2IsoP-PC), and 1-palmitoyl-2-(5,6)-epoxyisoprostane E2-sn-glycero-3-phosphocholine (PEIPC). […]

[2] = Phase 1 study NCT0456124 (Example 2): safety and tolerability; format: in vivo, human; details: 12 weeks
[3] = Phase II 24-week interim analysis in non-diabetic obese and overweight subjects (NCT05295875, Example 4); format: in vivo, human
Excerpt: Results presented in this example correspond to a 24-week interim analysis obtained from a placebo-controlled phase II study (ClinicalTrials.gov Identifier: NCT05295875) evaluating pemvidutide (ALT-801) in obese and overweight subjects. It is estimated that 70 to 75% subjects of this population have NAFLD while 34% may have NASH (Quek J. et al. Global prevalence of non-alcoholic fatty liver disease and non-alcoholic steatohepatitis in the overweight and obese population: a systematic review and meta-analysis. Lancet Gastroenterol Hepatol. 2023 January; 8(1):20-30). Key eligibility criteria were: (1) Men and women, ages 18-75 years; (2) at least one unsuccessful weight loss attempt per Investigator judgement; (3) Body Mass Index (BMI) ≥30 kg/m2 or BMI ≥27 kg/m2 with at least one obesity-related comorbidity (history of cardiovascular disease, hypertension, dyslipidemia, pre-diabetes or obstructive sleep apnea) and (4) non-diabetes (HbA1c ≤6.5% and fasting glucose ≤125 mg/dL). Eligible subjects were randomized 1:1:1:1 to one of the following treatment arms: Group 1 (39 subjects): pemvidutide 1.2 mg SC once weekly for 24 weeks; Group 2 (40 subjects): pemvidutide 1.8 mg administered subcutaneously once weekly for 24 weeks; Group 3 (40 subjects): pemvidutide 0.6 mg administered subcutaneously for 1 week, 1.2 mg administered subcutaneously for 1 week, 1.8 mg administered subcutaneously once weekly for 2 weeks, followed by 2.4 mg administered subcutaneously once weekly for 20 additional weeks (in sequence) and Group 4 (41 subjects): Placebo administered subcutaneously once weekly for 24 weeks. The randomization of subjects was stratified based on sex and baseline body mass index (BMI <35 kg/m2 vs. ≥35 kg/m2). A minimum of 25% of randomized subjects were male. All subjects received counselling on a reduced-calorie diet of 1200-1500 calories for individuals <250 lbs (113.6 kg) and 1500-1800 calories for individuals ≥250 lbs (113.6 kg) and a gradual increase in physical activity (targeting 150 min of physical activity per week) by a qualified healthcare professional at screening and at subsequent visits during the treatment period. Subjects were instructed to record their food intake and physical activity daily, and compliance with lifestyle interventions will be assessed by the investigator on a regular basis. A subgroup of subjects were subjected MRI-PDFF to evaluate the hepatic fat fraction in as well as composition to measure total body adipose tissue (AT) and adipose tissue-free mass (ATFM).
FIG. 27 presents the mean percentage weight loss over time in all evaluated subjects across the three pemvidutide doses and placebo over 24 weeks. Results are presented as efficacy estimand that assumes subjects remained on treatment for the entire duration, with missing values handled by Mixed Models for Repeated Measures. […] FIG. 28 presents the mean percentage weight loss (presented as efficacy estimand as described above) that was achieved over 24 weeks with pemvidutide and placebo in a subgroup of subjects with baseline body weight ≤115 kg. […] This phenomenon may relate to a lower level of drug exposure in subjects with higher body weight, and would support the possibility to increase dose levels in this population to maximize efficacy. FIG. 29 presents a weight loss responder analysis based on calculation of percentage of subjects who respectively achieve ≥5%, ≥10% and ≥15% weight loss across the three pemvidutide doses and placebo. FIG. 30 presents the percentage weight loss achieved across the four groups comparing Hispanic versus non-Hispanic subjects. […] Waist circumference is an index of central or abdominal obesity recommended by the WHO to assess the risk of metabolic diseases such as NAFLD and NASH and cardiovascular diseases.

Sequence of glucagon receptor (GCGR) (P47871 26-477): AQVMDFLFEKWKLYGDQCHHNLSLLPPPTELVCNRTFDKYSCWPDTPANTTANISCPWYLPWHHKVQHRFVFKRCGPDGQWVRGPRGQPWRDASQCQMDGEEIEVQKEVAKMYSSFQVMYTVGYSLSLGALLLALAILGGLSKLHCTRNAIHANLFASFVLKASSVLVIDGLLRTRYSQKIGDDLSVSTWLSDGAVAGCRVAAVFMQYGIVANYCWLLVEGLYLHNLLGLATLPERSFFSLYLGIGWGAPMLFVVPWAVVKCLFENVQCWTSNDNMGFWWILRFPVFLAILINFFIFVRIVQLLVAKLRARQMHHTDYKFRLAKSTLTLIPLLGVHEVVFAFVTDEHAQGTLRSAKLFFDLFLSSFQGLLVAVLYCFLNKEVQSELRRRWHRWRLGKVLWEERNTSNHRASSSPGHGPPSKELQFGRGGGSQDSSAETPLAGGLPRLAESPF

CC[C@H](C)[C@H](NC(=O)[C@H](Cc1ccccc1)NC(=O)[C@H](CCC(=O)O)NC(=O)[C@@H]1CCCCNC(=O)CC[C@H](NC(=O)[C@H](CC(=O)O)NC(=O)[C@H](CC(C)C)NC(=O)[C@H](Cc2ccc(O)cc2)NC(=O)[C@H](CCCCN)NC(=O)[C@H](CO)NC(=O)[C@H](Cc2ccc(O)cc2)NC(=O)[C@H](CC(=O)O)NC(=O)[C@H](CO)NC(=O)[C@@H](NC(=O)[C@H](Cc2ccccc2)NC(=O)[C@@H](NC(=O)CNC(=O)[C@H](CCC(N)=O)NC(=O)C(C)(C)NC(=O)[C@@H](N)Cc2c[nH]cn2)[C@@H](C)O)[C@H](C)O)C(=O)N[C@@H](CCCCNC(=O)C2O[C@@H](OCCCCCCCCCCCCCCCCCC(=O)O)C(O)C(O)[C@@H]2O)C(=O)N[C@@H](C)C(=O)N[C@@H](C)C(=O)N1)C(=O)N[C@@H](CCC(N)=O)C(=O)N[C@@H](Cc1c[nH]c2ccccc12)C(=O)N[C@@H](CC(C)C)C(=O)N[C@@H](CC(C)C)C(=O)N[C@@H](CCC(N)=O)C(=O)N[C@H](C(N)=O)[C@@H](C)O (some centres unmarked) [ALT-801, Pemvidutide]
EC50 [1]: ~0.04 nM
tolerability ([2]; 1.2, 1.8, 2.4 mg weekly, no dose titration): well-tolerated at all dose levels; also recorded: safe and well-tolerated
SAEs or AEs leading to treatment discontinuation [2]: no SAEs or AEs leading to treatment discontinuation were reported
severity of AEs [2]: mild or moderate severity
heart rate ([3]; 1.2, 1.8, 2.4 mg, 24-week treatment): do not induce a significant change in heart rates
systolic and diastolic blood pressure ([3]; 24-week treatment): improves both systolic and diastolic blood pressures in a dose dependent manner
weight loss, Hispanic versus non-Hispanic subjects ([3]; 24 weeks): tend to lose less body weight
serum lipids ([3]; all doses, week 24): decreased as compared to baseline
waist circumference ([3]; all doses, week 24): significant reduction in waist circumference
mean percentage weight loss over time ([3]; all evaluated subjects, 1.2, 1.8, 2.4 mg, 24 weeks): progressive, dose-dependent weight loss
weight loss in subgroup vs all subjects ([3]; baseline body weight <=115 kg, 24 weeks): higher levels of weight loss
